Where “and” joins values, the source holds several entries; their conditions need not be identical. Equal entries are not always repeated. Where two headings read alike, the source gives them in different places. Each block holds one molecule with its values, some of them ahead of it.
Tests used:
MIF [1] = settings: DOPA assay; cited from earlier work
human MIF [2] = biological target: T1, human MIF (Homo sapiens, UniProt P14174); experiment: HPP tautomerase assay; format: biochemical; settings: for Ki: tautomerase inhibition, HPP substrate, pH 6–6.1
T1 sequence (P14174 2-115 limits assumed): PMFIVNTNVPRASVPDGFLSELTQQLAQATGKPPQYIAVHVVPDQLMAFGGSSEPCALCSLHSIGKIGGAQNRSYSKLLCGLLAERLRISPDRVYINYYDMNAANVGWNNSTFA

human MIF [3] = biological target: T1, human MIF; experiment: Competitive fluorescence polarization; format: binding; settings: for Kd: 0.004 μM tracer B, […] MIF, pH 7.4, Kd from IC50 via eq 1
MIF [4] = settings: cited from earlier work
MIF [5] = settings: covalent inhibitor: result is time-dependent; cited from earlier work
MIF binding to CD74 = settings: blocking binding of MIF to CD74; cited from earlier work

SMILES: O=c1c(-c2ccc(O)c(O)c2)coc2cc(O)ccc12 [Orita-13]
Ki (MIF [1]): 0.038 µM

SMILES: Ic1cc(-c2ccccc2)ncn1 [4-IPP]
Kd (human MIF [3]): 0.446 µM
time dependence of FP results (human MIF [3]; FP monitored for 1 h after the 20 min incubation): time dependent
IC50 (MIF [5]): 4.5 µM

SMILES: COc1cc(-c2ccc(N=Nc3ccc4c(S(=O)(=O)O)cc(S(=O)(=O)O)c(N)c4c3O)c(OC)c2)ccc1N=Nc1ccc2c(S(=O)(=O)O)cc(S(=O)(=O)O)c(N)c2c1O [PSB]
IC50 (MIF binding to CD74): 0.81 µM

Second part, led by results:

Ki (human MIF [2]): ~0.03 µM and 0.03 µM
fold more potent than (R)-ISO-1 (human MIF [2]; from Ki values): roughly 1000 fold
fold stronger binding than NVS-6 (human MIF [3]): 3 fold
ligand efficiency (human MIF [3]; (−2.3RT/HAC) log Kd): 0.50
SMILES: COc1ccc(N2Cc3ccc(O)cc3OC2=O)cc1 [NVS-2]
IC50 (MIF [4]; HPP tautomerase assay): 0.02 µM
IC50 (MIF [4]; previously reported): 0.02 µM

Ki (human MIF [2]): 1.9 µM
SMILES: COc1ccc(Oc2cn(-c3ccc(O)c(F)c3)nn2)cc1 [5a]

Ki (human MIF [2]): 1.7 µM
SMILES: O=C(O)c1ccc(Oc2cn(-c3ccc(O)c(F)c3)nn2)cc1 [5b]

Ki (human MIF [2]): 0.569 µM
fold weaker binding (cyclohexyl analogue vs NVS-2) (human MIF [3]): ca. 10 fold
Kd (human MIF [3]; Kd): 0.456 µM
SMILES: O=C1Oc2cc(O)ccc2CN1C1CCCCC1 [NVS-1]

Ki (human MIF [2]): 0.185 µM
Kd (human MIF [3]; Kd): 0.159 µM
SMILES: O=C1Oc2cc(O)ccc2CN1c1ccc(O)cc1 [NVS-6]

Reference: PMC4945996 (Journal of the American Chemical Society, 2016)
